Literature values in Sander's compilation of Henry's law constants.
Blank lines part the entries; values can stand above or below the compound they belong to.

Test: Henry solubility constant Hcp at 298.15 K (mol/(m3 Pa))
Conditions: cited value
[1] = reference: Barcelo and Hennion (1997)
[2] = reference: Burkholder et al. (2015)
[3] = reference: Burkholder et al. (2019)
[4] = reference: Sander et al. (2006)
[5] = reference: Sander et al. (2011)
[6] = reference: Fogg and Sangster (2003)
[7] = reference: Wania and Dugani (2003)

SMILES: O=[N+]([O-])c1ccc(Cl)cc1 [4-chloronitrobenzene]
Henry solubility constant Hcp (reference: Brockbank (2013)): 0.64

SMILES: CN/C(=N\[N+](=O)[O-])NCc1cnc(Cl)s1 [clothianidin]
Henry solubility constant Hcp (reference: MacBean (2012b)): 3.4e+10

SMILES: ClC1=C(Cl)C2(Cl)C3C(Cl)C=CC3C1(Cl)C2(Cl)Cl (stereo not drawn) [heptachlor]
Henry solubility constant Hcp [1]: 8.8e-05 | Henry solubility constant Hcp (reference: McCarty (1980)): 0.0043 | Henry solubility constant Hcp (reference: Meylan and Howard (1991)): 0.0067

Henry solubility constant Hcp (reference: Clever (1980)): 1.4e-05
SMILES: [Ar] [argon]

SMILES: COP(=S)(OC)Oc1ccc(SC)c(C)c1 [fenthion]
Henry solubility constant Hcp [1]: 0.45

SMILES: S=C=S [carbon disulfide]
Henry solubility constant Hcp [2]: 0.00061 | Henry solubility constant Hcp [3]: 0.00061 | Henry solubility constant Hcp (reference: Goldstein (1982)): 0.00075 | Henry solubility constant Hcp [4]: 0.00061 | Henry solubility constant Hcp [5]: 0.00061

Henry solubility constant Hcp (reference: Brockbank (2013)): 0.039
SMILES: C=CCN(CC=C)CC=C [N,N-di-2-propenyl-2-propen-1-amine]

Henry solubility constant Hcp (reference: Goldstein (1982)): 9.8
SMILES: O=[N+]([O-])c1ccc(O)cc1 [4-nitrophenol]

Henry solubility constant Hcp (reference: Brockbank (2013)): 13 | Henry solubility constant Hcp (reference: Gaffney and Senum (1984)): 9.9 | Henry solubility constant Hcp (reference: Howard (1989)): 10
SMILES: Cc1ccc(O)cc1 [1-hydroxy-4-methylbenzene]

Henry solubility constant Hcp (reference: Mackay et al. (1992b)): 13
SMILES: c1cc2ccc3ccc4ccc5cccc6c(c1)c2c3c4c56 [benzo[ghi]perylene]

SMILES: CCC(CC)Nc1c([N+](=O)[O-])cc(C)c(C)c1[N+](=O)[O-] [penoxaline]
Henry solubility constant Hcp [1]: 0.0026

SMILES: ClCC(Cl)CCl [1,2,3-trichloropropane]
Henry solubility constant Hcp (reference: Brockbank (2013)): 0.033 | Henry solubility constant Hcp [2]: 0.036 | Henry solubility constant Hcp [3]: 0.036

SMILES: Cc1cc(C)cc(C)c1 [1,3,5-trimethylbenzene]
Henry solubility constant Hcp (reference: Brockbank (2013)): 0.0012

Henry solubility constant Hcp (reference: Brockbank (2013)): 0.038
SMILES: CCOC(=O)CC [ethyl propanoate]

Henry solubility constant Hcp (reference: Brockbank (2013)): 0.0013
SMILES: C1=CCC=CC1 [1,4-cyclohexadiene]

SMILES: FC(F)(F)Cl [chlorotrifluoromethane]
Henry solubility constant Hcp [2]: 9.9e-06 | Henry solubility constant Hcp [3]: 9.9e-06 | Henry solubility constant Hcp [5]: 9.9e-06

Henry solubility constant Hcp (reference: Brockbank (2013)): 0.016
SMILES: CC(C)COC=O [(2-methylpropyl)-methanoate]

SMILES: Fc1c(F)c(F)c(F)c(F)c1F [hexafluorobenzene]
Henry solubility constant Hcp (reference: Brockbank (2013)): 0.0003

SMILES: C#CC(C)(C)NC(=O)c1cc(Cl)cc(Cl)c1 [propyzamide]
Henry solubility constant Hcp [1]: 0.052

SMILES: CC(C)CO [2-methyl-1-propanol]
Henry solubility constant Hcp (reference: Brockbank (2013)): 0.8 | Henry solubility constant Hcp [2]: 0.83 | Henry solubility constant Hcp [3]: 0.83 | Henry solubility constant Hcp [4]: 1 | Henry solubility constant Hcp [5]: 1

SMILES: O=NCl [nitrosyl chloride]
Henry solubility constant Hcp [2]: > 0.00049 | Henry solubility constant Hcp [3]: > 0.00049

SMILES: CC(C1CC1)C(O)(Cn1cncn1)c1ccc(Cl)cc1 (stereo not drawn) [cyproconazole]
Henry solubility constant Hcp [1]: 130

SMILES: C=C(Cl)Cl [1,1-dichloroethene]
Henry solubility constant Hcp (reference: Brockbank (2013)): 0.00031 | Henry solubility constant Hcp [2]: 0.00037 | Henry solubility constant Hcp [3]: 0.00037 | Henry solubility constant Hcp [6]: 0.0004 | Henry solubility constant Hcp (reference: Goldstein (1982)): 0.00064

SMILES: Nc1ccc(-c2ccc(N)cc2)cc1 [benzidine]
Henry solubility constant Hcp (reference: Mackay et al. (1995)): 25

SMILES: COP(=S)(OC)Oc1ccc([N+](=O)[O-])cc1 [methylparathion]
Henry solubility constant Hcp [1]: 0.47

SMILES: CSc1nc(NC(C)C)nc(NC(C)C)n1 [prometryn]
Henry solubility constant Hcp [1]: 20

SMILES: CC(Cl)(Cl)Cl [1,1,1-trichloroethane]
Henry solubility constant Hcp (reference: Barr and Newsham (1987)): 0.00058 | Henry solubility constant Hcp (reference: Brockbank (2013)): 0.00058 | Henry solubility constant Hcp [2]: 0.0006 | Henry solubility constant Hcp [3]: 0.0006 | Henry solubility constant Hcp [6]: 0.00062 | Henry solubility constant Hcp (reference: Goldstein (1982)): 0.0022

SMILES: CC(=O)CF [1-fluoro-2-propanone]
Henry solubility constant Hcp [2]: 0.46 | Henry solubility constant Hcp [3]: 0.46

Henry solubility constant Hcp (reference: Brockbank (2013)): 0.0028
SMILES: CC(C)SC(C)C [di-(2-propyl)-sulfide]

Henry solubility constant Hcp (reference: Brockbank (2013)): 0.00056
SMILES: C#CCC [1-butyne]

Henry solubility constant Hcp (reference: Brockbank (2013)): 0.072
SMILES: CCCCC(=O)CC [3-heptanone]

SMILES: O=C(O)C(Br)Br [dibromoethanoic acid]
Henry solubility constant Hcp [2]: 2300 | Henry solubility constant Hcp [3]: 2300 | Henry solubility constant Hcp [5]: 2300

Henry solubility constant Hcp (reference: Jacob (1986)): 0.25
SMILES: [OH] [hydroxyl radical]

SMILES: Brc1ccc(Oc2cc(Br)c(Br)cc2Br)c(Br)c1 [2,2',4,4',5-pentabromodiphenyl ether]
Henry solubility constant Hcp [7]: 1.9

SMILES: CCC(C)Br (stereo not drawn) [2-bromobutane]
Henry solubility constant Hcp (reference: Brockbank (2013)): 0.00088

Henry solubility constant Hcp (reference: Hine and Weimar (1965)): 0.0098
SMILES: COC [dimethyl ether]

SMILES: C=CC(=O)OCC [ethyl propenoate]
Henry solubility constant Hcp (reference: Brockbank (2013)): 0.039

Henry solubility constant Hcp (reference: Brockbank (2013)): 0.023
SMILES: CCC(C)OC(C)=O (stereo not drawn) [2-butyl ethanoate]

SMILES: Brc1ccc(Oc2c(Br)cc(Br)cc2Br)c(Br)c1 [2,2',4,4',6-pentabromodiphenyl ether]
Henry solubility constant Hcp [7]: 2.6
